US6410527B1, “Method of treating obsessive compulsive disorders, somatoform disorders, dissociative disorders, eating disorders, impulse control disorders, and autism” (Schering Corporation, priority 1998, dated 2002)
Structures can show the parent of a compound that is named as a salt.

What was measured:
[1] = system: patient diagnosed with obsessive-compulsive disorder; assay: Administration of SCH 39166 capsules to a patient with obsessive-compulsive disorder; format: in vivo, human; settings: capsules of Example 1 containing 5.0 mg SCH 39166, once a day, six months
[2] = system: patient diagnosed as having autism; assay: Administration of SCH 39166 capsules to a patient with autism; format: in vivo, human; settings: capsules of Example 1 containing 25.0 mg SCH 39166, once a day, six months

CN1CCc2cc(Cl)c(O)cc2[C@H]2c3ccccc3CC[C@@H]21 [SCH 39166, (−)-trans-6,7,7a, 8,9,13b-hexahydro-3-chloro-2-hydroxy-N-methyl-5-H-benzo[d]naphtho{2,1-b}azepine HCl]
observable symptoms of the disorder [1]: reducing or eliminating the observable symptoms of the disorder | observable symptoms of the disorder [2]: reducing or eliminating the observable symptoms of the disorder
